The target in the assay is corticotropin-releasing factor-binding protein / CRF receptor 2 complex (human). The assay is described as follows: blockers of CRF-binding protein–CRF-R2 complex – cell-based, uHTS hits, 384-well, dose response (AID 651639). The note with it: CRF-BP/CRF-R2 complex antagonism, cell-based 384-well.

The source made the active and inactive calls. How the calls were made is not given here.

This is an account of results in PubChem BioAssay AID651639 (Sanford-Burnham Center for Chemical Genomics, 2012).

With `CN1C(=O)C(N=Nc2ccc([N+](=O)[O-])cc2)SC1=S` (stereo not given), the IC50 was 1 µM. As for `Cc1ccc2nc(N3C(=O)C(O)=C(C(=O)c4ccc(C)o4)C3c3cccc(O)c3)sc2c1` (stereo not given), the figure is 10.4 µM. As to `N#C/C(=C(/O)COc1ccc(Cl)cc1)c1nc2ccccc2s1`, the IC50 is > 20 µM (inactive). Consider `O=C(O)c1ccc(/C=N/Nc2cccc(C(F)(F)F)c2)cc1`, for which the IC50 is > 20 µM (inactive). Regarding `Cc1cc(=O)oc2c1ccc1oc(/C(=N/O)c3ccccc3)c(C)c12`, the IC50 is > 20 µM (inactive). As to `N#C/C(=C(/O)Cc1cccc2ccccc12)c1nc2ccccc2s1`, the IC50 was 11.3 µM. As for `CN1c2ccccc2C(O)=C(C(=S)Nc2ccc(Cl)cc2)S1(=O)=O`, the figure is > 20 µM (inactive).

As to `COc1ccc(/C=N/OCC(=O)N=Nc2c(O)[nH]c3ccc(Br)cc23)cc1`, the IC50 is > 20 µM (inactive). In the case of `COc1ccc(C(C)=NNc2ccc([N+](=O)[O-])cc2S(=O)(=O)Nc2ccccc2C(=O)O)c(OC)c1`, the IC50 was 9.4 µM.

Consider `Cc1ccc2nc(N3C(=O)C(O)=C(C(=O)c4ccco4)C3c3cccc(O)c3)sc2c1` (stereo not given), for which the IC50 is > 20 µM (inactive). With `COC(=O)c1ccc(/C(O)=C(\C#N)c2nc3ccccc3s2)cc1`, the IC50 was > 20 µM (inactive). With `Cc1ccc(-n2[nH]c(C)c(/C=N/Nc3ccc([N+](=O)[O-])cc3[N+](=O)[O-])c2=O)cc1`, the IC50 was 15.5 µM. Turning to `O=[N+]([O-])c1cc(/C=N\O)ccc1Oc1ccc(F)cc1`, the IC50 is 17.5 µM.

For the molecule `Cc1ccc(S(=O)(=O)N(CC(=O)N=Nc2c(O)[nH]c3ccccc23)c2ccc(C)c(C)c2)cc1`, the IC50 is > 20 µM (inactive). In the case of `O=C1N=c2ccccc2=C1c1sc(=S)n(NC(=O)c2cccc(O)c2)c1O`, the IC50 is > 20 µM (inactive).
